Among the data in patent US8148404B2, “Modulators of CB1 receptors” (7TM Pharma A/S, priority 2006, dated 2012) are IC50 values, retold here.

Broadly, the pIC50 is the negative decadic logarithm of the IC50, by convention in mol/L.

SMILES strings stand for the structures. pIC50: −log10 of the molar value.

This assay deals with T1, human CB1 receptor (Homo sapiens, UniProt P21554).
T1 construct: expressed in transfected cells; membranes used
T1 sequence (P21554 whole entry): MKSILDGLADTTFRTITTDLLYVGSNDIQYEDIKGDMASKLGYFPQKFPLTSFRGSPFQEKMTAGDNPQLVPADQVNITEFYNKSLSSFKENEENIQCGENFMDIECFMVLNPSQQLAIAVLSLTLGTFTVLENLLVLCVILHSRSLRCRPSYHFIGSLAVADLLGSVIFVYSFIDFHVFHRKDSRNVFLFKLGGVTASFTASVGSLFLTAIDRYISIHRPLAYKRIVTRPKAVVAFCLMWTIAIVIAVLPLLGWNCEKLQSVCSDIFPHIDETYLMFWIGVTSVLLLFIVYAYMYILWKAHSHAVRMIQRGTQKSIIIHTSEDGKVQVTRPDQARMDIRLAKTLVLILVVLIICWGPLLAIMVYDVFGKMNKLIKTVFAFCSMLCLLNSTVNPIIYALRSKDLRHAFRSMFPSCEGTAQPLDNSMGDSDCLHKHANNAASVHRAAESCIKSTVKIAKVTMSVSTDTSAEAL
As to the kind of experiment: Cannabinoid Receptor-1 functional assay: inhibition of CP55940-induced [35S]GTPγS binding to membranes of CHO-K1 cells expressing human CB1. It counts as biochemical. To be noted: 3 nM CP55940, [35S]GTPγS SPA, hCB1 membranes; read-out: IC50 value for antagonizing a CB1 receptor agonist. The source says:
Transfection and Cell Culture—The cDNA encoding the human CB1 (Cannabinoid Receptor-1) receptor (GenBank accession number NM_016083) was cloned from a human adipose tissue cDNA library and cloned into the eukaryotic expression vector pcDNA3.1 (Invitrogen).
Chinese Hamster Ovary cells (CHO-K1) stably expressing recombinant human CB1 were generated by transfecting the plasmid containing the coding sequence of the human CB1 receptor in CHO-K1 cells, using lipofectamin, according to the manufacturer instructions. Resistant clones were selected in the presence of 600 μg/ml G418 (Life technology). Stably transfected CHO-K1 cells were maintained in Ham's F-12 culture medium (Invitrogen), supplemented with 10% fetal calf serum (Invitrogen), 100 U/ml penicillin, 100 μg/ml streptomycin (Life Technology), and 600 μg/ml G418.
Functional activities of the above examples of compounds of the invention were assessed in vitro by measuring their ability to inhibit CP55940-induced [^35S]GTPγS binding to membranes prepared from CHO-K1 cells expressing the human CB1 receptor (described in Transfection and Cell Culture). CP55940 is a well known non-selective CB1 and CB2 receptor agonist (e.g Felder et al., 1995, Molecular Pharmacology, (48) 443-50). Membranes were prepared by a standard procedure. Briefly, cells were harvested using 10 mM EDTA and collected by centrifugation. Pelleted cells were homogenized in ice-cold 20 mM Hepes (pH 7.4), 10 mM EDTA and protease inhibitors (Complete protease inhibitor cocktail tablet, Roche) using an Ultra Turrax Homogenizer. The homogenate was centrifuged at 14 000 rpm for 45 min. at 4° C. The resultant pellet was resuspended in the same buffer but with only 0.1 mM EDTA and was again centrifuged at 14 000 rpm for 45 min. at 4° C. The resulting pellet (membranes) was resuspended in 20 mM Hepes (pH 7.4), 0.1 mM EDTA, 2 mM MgCl2 and protease inhibitors and protein concentration was determined by Micro BCA Protein Assay Reagent Kit (Pierce Biotechnology) according to the manufacturer instructions. The [^35S]GTPγS SPA (Scintillation Proximity Assay) binding assay was performed by incubating 5 μg/well hCB1-membranes with 1 nM [^35S]GTPγS (Perkin Elmer—NEG 030H) in the presence of 3 nM of CP55940 and various concentrations of the test compounds at room temperature for 1 hr in 96-well microtiter plates. 0.4 mg/well SPA beads (PVT-WGA; RPNQ0001 Amersham Pharmacia Biotech) were then added and the incubation continued for further 30 min. on an orbital shaker. The assay buffer contained 50 mM HEPES (pH 7.5), 50 mM NaCl, 2.5 mM MgCl2, 0.1% BSA, 1 μM GDP and 100 μg/ml Saponin. Microtiter plates were centrifuged at 1500 rpm for 5 min. and radioactivity was read immediately using a Topcounter (PerkinElmer Life Sciences). Data were analyzed and IC50 values determined by non-linear regression using the Prism software (GraphPad Software, San Diego).
For the molecule `O=C(O)Cc1c(C(=O)N2CCC(c3cccc(F)c3)CC2)nn(-c2ccccc2Cl)c1-c1ccc(Cl)cc1` [Compound [1.13], {1-(2-Chloro-phenyl)-5-(4-chloro-phenyl)-3-[4-(3-fluoro-phenyl)-piper-idine-1-carbonyl]-1H-pyrazol-4-yl}-acetic acid], the pIC50 was greater than 6.52.
Take `O=C(c1nn(-c2ccccc2Cl)c(-c2ccc(Cl)cc2)c1Cc1nn[nH]n1)N1CC(Oc2ccc(F)cc2)C1` [[3.7], [1-(2-Chloro-phenyl)-5-(4-chloro-phenyl)-4-(2H-tetrazol-5-ylmethyl)-1H-pyrazol-3-yl]-[3-(4-fluorophenoxy)-azetidin-1-yl]-methanone]: the negative-log IC50 (pIC50) is greater than 6.52.
For `O=C(O)Cc1c(C(=O)N2CCC(O)(c3cccc(C(F)(F)F)c3)CC2)nn(-c2ccccc2Cl)c1-c1ccc(Cl)cc1` [[1.11], {1-(2-Chloro-phenyl)-5-(4-chloro-phenyl)-3-[4-hydroxy-4-(3-trifluoromethyl-phenyl)-piperidine-1-carbonyl]-1H-pyrazol-4-yl}-acetic acid] the value was greater than 6.52; for `N#Cc1ccccc1C1CCN(C(=O)c2nn(-c3ccccc3Cl)c(-c3ccc(Cl)cc3)c2CC(=O)O)CC1` [[1.51], {1-(2-Chloro-phenyl)-5-(4-chloro-phenyl)-3-[4-(2-cyano-phenyl)-piperidine-1-carbonyl]-1H-pyrazol-4-yl}-acetic acid], greater than 6.52.
For `O=C(O)Cc1c(C(=O)N2CCC(c3ccccc3F)CC2)nn(-c2ccccc2F)c1-c1ccc(Cl)cc1` [[4.4], {1-(2-Fluoro-phenyl)-5-(4-chloro-phenyl)-3-[4-(2-fluoro-phenyl)-piperidine-1-carbonyl]-1H-pyrazol-4-yl}-acetic acid] the value was greater than 6.52.
The result for `O=C(O)Cc1c(C(=O)N2CCC(c3ccncc3)CC2)nn(-c2ccccc2Cl)c1-c1ccc(Cl)cc1` [[1.32], [1-(2-Chloro-phenyl)-5-(4-chloro-phenyl)-3-(3,4,5,6-tetrahydro-2H-[4,4′]bipyridinyl-1-carbonyl)-1H-pyrazol-4-yl}-acetic acid] reads 5.52 to 6.52; that for `O=C(O)Cc1c(C(=O)N2CCC(c3ccccc3F)CC2)nn(-c2ccccc2Cl)c1-c1ccc(Cl)cc1` [[1.27], {1-(2-Chloro-phenyl)-5-(4-chloro-phenyl)-3-[4-(2-fluoro-phenyl)-piperidine-1-carbonyl]-1H-pyrazol-4-yl}-acetic acid], greater than 6.52.
Regarding `O=C(c1nn(-c2ccccc2F)c(-c2ccc(Cl)cc2)c1Cc1nn[nH]n1)N1CCC(Oc2ccc(Cl)cc2)CC1` [[4.1], [1-(2-Fluoro-phenyl)-5-(4-chloro-phenyl)-4-(2H-tetrazol-5-ylmethyl)-1H-pyrazol-3-yl]-[4-(4-chlorophenoxy)-piperidin-1-yl]-methanone], the pIC50 is greater than 6.52.
For the molecule `O=C(O)Cc1c(C(=O)N2CCC(c3ccc(F)cc3)CC2)nn(-c2ccccc2Cl)c1-c1ccc(Cl)cc1` [[1.5], {5-(4-Chloro-phenyl)-1-(2-chloro-phenyl)-3-[4-(4-fluoro-phenyl)-piperidine-1-carbonyl]-1H-pyrazol-4-yl}-acetic acid], the pIC50 was greater than 6.52.
For `O=C(O)C(O)c1c(C(=O)N2CCC(c3ccccc3F)CC2)nn(-c2ccccc2Cl)c1-c1ccc(Cl)cc1` (centres unmarked) [Compound [1.65], {1-(2-Chloro-phenyl)-5-(4-chloro-phenyl)-3-[4-(2-fluoro-phenyl)-piperidine-1-carbonyl]-1H-pyrazol-4-yl}-2-hydroxy acetic acid] the value was greater than 6.52; for `O=C(O)COc1c(C(=O)N2CCC(c3ccc(F)cc3)CC2)nn(-c2ccccc2Cl)c1-c1ccc(Cl)cc1` [Compound [1.3], {5-(4-Chloro-phenyl)-1-(2-chloro-phenyl)-3-[4-(4-fluoro-phenyl)-piper-idine-1-carbonyl]-1H-pyrazol-4-yloxy}-acetic acid], greater than 6.52.
For `O=C(O)Cc1c(C(=O)N2CCC(O)(c3csc(Br)n3)CC2)nn(-c2ccccc2Cl)c1-c1ccc(Cl)cc1` [[1.24], [3-[4-(2-Bromo-thiazol-4-yl)-4-hydroxy-piperidine-1-carbonyl]-5-(4-chloro-phenyl)-1-(2-chloro-phenyl)-1H-pyrazol-4-yl]-acetic acid] the value was greater than 6.52; for `O=C(O)Cc1c(C(=O)N2CCC(c3ccccc3Cl)CC2)nn(-c2ccccc2Cl)c1-c1ccc(Cl)cc1` [[1.54], {1-(2-Chloro-phenyl)-5-(4-chloro-phenyl)-3-[4-(2-chloro-phenyl)-piper-idine-1-carbonyl]-1H-pyrazol-4-yl}-acetic acid], greater than 6.52; for `O=C(O)Cc1c(C(=O)N2CCC(Oc3ccc(F)c(F)c3)CC2)nn(-c2ccccc2Cl)c1-c1ccc(Cl)cc1` [[1.61], {1-(2-Chloro-phenyl)-5-(4-chloro-phenyl)-3-[4-(3,4-difluorophenoxy)-piperidine-1-carbonyl]-1H-pyrazol-4-yl}-acetic acid], greater than 6.52.
Take `O=C(O)Cc1c(C(=O)N2CCC(Oc3ccc(Cl)cc3)CC2)nn(-c2ccccc2Cl)c1-c1ccc(Cl)cc1` [[1.59], {1-(2-Chloro-phenyl)-5-(4-chloro-phenyl)-3-[4-(4-chlorophenoxy)-piperidine-1-carbonyl]-1H-pyrazol-4-yl}-acetic acid]: the negative logarithm of the IC50 (pIC50) is greater than 6.52.
For `CO[C@H]1CN(C(=O)c2nn(-c3ccccc3Cl)c(-c3ccc(Cl)cc3)c2CC(=O)O)CC[C@@H]1c1ccccc1` (relative stereo) [[1.56], {1-(2-Chloro-phenyl)-5-(4-chloro-phenyl)-3-[trans-4-phenyl-3-methoxy-piper-idine-1-carbonyl]-1H-pyrazol-4-yl}-acetic acid] the value was greater than 6.52.
For `O=C(O)Cc1c(C(=O)N2CCC(O)(c3ccc(C(F)(F)F)cc3)CC2)nn(-c2ccccc2Cl)c1-c1ccc(Cl)cc1` [[1.10], {1-(2-Chloro-phenyl)-5-(4-chloro-phenyl)-3-[4-hydroxy-4-(4-trifluoromethyl-phenyl)-piperidine-1-carbonyl]-1H-pyrazol-4-yl}-acetic acid] the value was greater than 6.52.
For `N#Cc1ccc(C2CCN(C(=O)c3nn(-c4ccccc4Cl)c(-c4ccc(Cl)cc4)c3CC(=O)O)CC2)cc1` [[1.45], {1-(2-Chloro-phenyl)-5-(4-chloro-phenyl)-3-[4-(4-cyano-phenyl)-piperidine-1-carbonyl]-1H-pyrazol-4-yl}-acetic acid] the value was greater than 6.52.
As for `O=C(O)Cc1c(C(=O)N2CCC(O)(c3ccc(F)cc3)CC2)nn(-c2ccccc2Cl)c1-c1ccc(Cl)cc1` [[1.7], {1-(2-Chloro-phenyl)-5-(4-chloro-phenyl)-3-[4-(4-fluoro-phenyl)-4-hydroxy-piperidine-1-carbonyl]-1H-pyrazol-4-yl}-acetic acid], the pIC50 is greater than 6.52.
For `O=C(c1nn(-c2ccccc2Cl)c(-c2ccc(Cl)cc2)c1Cc1nn[nH]n1)N1CCC(Oc2ccccc2)CC1` [[3.5], [1-(2-Chloro-phenyl)-5-(4-chloro-phenyl)-4-(2H-tetrazol-5-ylmethyl)-1H-pyrazol-3-yl]-[4-phenoxy-piperidin-1-yl]-methanone] the value was greater than 6.52; for `Cc1c(C(=O)N2CCC(C(=O)O)(c3ccccc3)CC2)nn(-c2ccccc2Cl)c1-c1ccc(Cl)cc1` [[2.1], 1-[5-(4-Chloro-phenyl)-1-(2-chloro-phenyl)-4-methyl-1H-pyrazole-3-carbonyl]-4-phenyl-piperidine-4-carboxylic acid], greater than 6.52; for `O=C(O)Cc1c(C(=O)N2CCc3ccccc3C2)nn(-c2ccccc2Cl)c1-c1ccc(Cl)cc1` [[1.4], [5-(4-Chloro-phenyl)-1-(2-chloro-phenyl)-3-(3,4-dihydro-1H-isoquinoline-2-carbonyl)-1H-pyrazol-4-yl]-acetic acid], greater than 6.52.
The result for `O=C(c1nn(-c2ccccc2Cl)c(-c2ccc(Cl)cc2)c1Cc1nn[nH]n1)N1CCC(Oc2ccc(Cl)cc2)CC1` [[3.6], [1-(2-Chloro-phenyl)-5-(4-chloro-phenyl)-4-(2H-tetrazol-5-ylmethyl)-1H-pyrazol-3-yl]-[4-(4-chlorophenoxy)-piperidin-1-yl]-methanone] reads greater than 6.52.
